One test deals with LPA 18:2 in rat plasma. Nature of the test: Rat whole blood (plasma) LPA assay. Type of test: biochemical. The settings on record: 2 h at 37 C, LPA 18:2 by LC-MS/MS. The method, then: Whole blood is collected from rats or mouse by exsanguinations on sodium heparin tube, then after centrifugation at 3000 rpm for 15 min at 4° C., plasma is stored at −80° C. Compounds are diluted in DMSO in concentration dependent manner then 0.5 μL are dispensed into 96-well plate placed in ice. Plasma is defrosted on ice then 49.5 μL of plasma are added into the well containing 0.5 μL of compound (1% DMSO final). Plates are covered with a lid in polypropylene and incubated at +37° C., 5% CO2, for 2 h under gentle shaking (except controls which are stored at −20° C.).
At the end of the incubation, controls are defrosted in ice and transferred in the incubated plates for LC-MS/MS analysis with a non GLP-validated method. For the analysis, plasma proteins from a 10 μL incubated plates are precipitated with an excess of methanol containing the internal standard, LPA 17:0. After centrifugation, the corresponding supernatant is injected on a C18 column. Analytes are eluted out of the column under isocratic conditions. An API5500 QTRAP mass spectrometer (ABSciex™) is used for the detection of LPA 18:2. No calibration curve is prepared for LPA 18:2, however relative quantities are evaluated based on the peak area.

The target of test [1] is T1, hENPP2 (UniProtKB/SwissProt Q13822) (Homo sapiens (Human), UniProt Q13822). Description: hENPP2 biochemical assay, LPC as substrate. The settings on record: LPC (palmitoyl 16:0) as substrate. In outline: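 Human ENPP2 in 50 mM Tris-HCl pH 8.5, 500 mM NaCl, 5 mM KCl, 10 mM CaCl2, 0.1% fatty-acid-free BSA, reacted 30 min at 37 °C with LPC 16:0 (150 µM solution added 1:1). Released choline measured via choline oxidase/peroxidase/TOOS/4-aminoantipyrine quinoneimine dye at 555 nm; IC50 reported.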

Test [2] has as its target T1, hENPP2. Description: fluorescent hENPP2 biochemical assay, FS-3 as substrate. Particulars: read-out: FS3-IC50. In outline: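 hENPP2 in 50 mM Tris-HCl pH 8.0, 250 mM NaCl, 5 mM KCl, 1 mM MgCl2, 1 mM CaCl2, 0.1% fatty-acid-free BSA, preincubated with compound 30 min at room temperature. The 0.75 μM FS-3 solution was added and the mixture incubated 30 min at 30° C. Fluorescence (ex 485/em 520 nm) gives IC50.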

One may read the IC50 as the concentration that inhibits the measured activity by half. In the test on LPA 18:2 in rat plasma, `CCc1nc2c(C)cc(C3CCN(CC(=O)N4CC(O)C4)CC3)cn2c1N(C)c1nc(-c2ccc(F)cc2)c(C#N)s1` [Compound 10, 2-((2-ethyl-6-(1-(2-(3-hydroxyazetidin-1-yl)-2-oxoethyl)piperidin-4-yl)-8-methylimidazo[1,2-a]pyridin-3-yl)(methyl)amino)-4-(4-fluorophenyl)thiazole-5-carbonitrile] displayed an IC50 of 100 to 500 nM. In the case of `CCc1nc2ccc(N3CCN(CC(=O)N(C)C)CC3)cn2c1N(C)c1nc(-c2ccc(F)cc2)c(C#N)s1` [Compound 140, 2-(4-(3-((5-cyano-4-(4-fluorophenyl)thiazol-2-yl)(methyl)amino)-2-ethylimidazo[1,2-a]pyridin-6-yl)piperazin-1-yl)-N,N-dimethylacetamide], the IC50 against hENPP2 [1] and in the test with LPA 18:2 in rat plasma was 0.01 to 100 nM throughout. As to `CCc1nc2ccc(C3CCN(CC(=O)N4CC(CO)C4)CC3)cn2c1N(C)c1nc(-c2ccc(F)cc2)c(C#N)s1` [Compound 144, 2-((2-ethyl-6-(1-(2-(3-(hydroxymethyl)azetidin-1-yl)-2-oxoethyl)piperidin-4-yl)imidazo[1,2-a]pyridin-3-yl)(methyl)amino)-4-(4-fluorophenyl)thiazole-5-carbonitrile], the IC50 against hENPP2 [1] and with LPA 18:2 in rat plasma was 0.01 to 100 nM each time. For the molecule `CCc1nc2c(F)cc(N3CCN(CC(=O)N4CC[C@@H](O)C4)CC3)cn2c1N(C)c1nc(-c2ccc(F)cc2)cs1` [Compound 16, (R)-2-(4-(2-ethyl-8-fluoro-3-((4-(4-fluorophenyl)thiazol-2-yl)(methyl)amino)imidazo[1,2-a]pyridin-6-yl)piperazin-1-yl)-1-(3-hydroxypyrrolidin-1-yl)ethanone], the IC50 in the test with LPA 18:2 in rat plasma is 500 to 1000 nM. For the molecule `CCc1nc2c(F)cc(N3CCN(CC(=O)N4CC[C@H](O)C4)CC3)cn2c1N(C)c1nc(-c2ccc(F)cc2)cs1` [Compound 15, (S)-2-(4-(2-ethyl-8-fluoro-3-((4-(4-fluorophenyl)thiazol-2-yl)(methyl)amino)imidazo[1,2-a]pyridin-6-yl)piperazin-1-yl)-1-(3-hydroxypyrrolidin-1-yl)ethanone], in the test with LPA 18:2 in rat plasma, the IC50 was in the range of 500 to 1000 nM. In the test on LPA 18:2 in rat plasma, `CCc1nc2c(C)cc(N3CCN(CC(=O)N4CC(C)(O)C4)CC3)cn2c1N(C)c1nc(-c2ccc(F)cc2)c(C#N)s1` [Compound 3, 2-((2-ethyl-6-(4-(2-(3-hydroxy-3-methylazetidin-1-yl)-2-oxoethyl)piperazin-1-yl)-8-methylimidazo[1,2-a]pyridin-3-yl)(methyl)amino)-4-(4-fluorophenyl)thiazole-5-carbonitrile] had an IC50 of 100 to 500 nM. Still for that read-out and setting: the result for `CCc1nc2cc(F)c(N3CCN(CC(=O)N4CC(O)C4)CC3)cn2c1N(C)c1nc(-c2ccc(F)cc2)cs1` [Compound 19, 2-[4-(2-Ethyl-7-fluoro-3-{[4-(4-fluoro-phenyl)-thiazol-2-yl]-methyl-amino}-imidazo[1,2-a]pyridin-6-yl)-piperazin-1-yl]-1-(3-hydroxy-azetidin-1-yl)-ethanone] reads > 1000 nM; that for `CCc1nc2c(F)cc(N3CCN(CC(=O)N4CC(O)C4)CC3)cn2c1N(C)c1nc(-c2ccc(F)cc2)cs1` [Compound 14, 2-(4-(2-ethyl-8-fluoro-3-((4-(4-fluorophenyl)thiazol-2-yl)(methyl)amino)imidazo[1,2-a]pyridin-6-yl)piperazin-1-yl)-1-(3-hydroxyazetidin-1-yl)ethanone], 0.01 to 100 nM. On to `CCC(=O)N1CCN(c2ccc3nc(CC)c(N(C)c4nc(-c5ccc(F)cc5)cs4)n3c2)CC1` [Compound 51, 1-(4-(2-ethyl-3-((4-(4-fluorophenyl)thiazol-2-yl)(methyl)amino)imidazo[1,2-a]pyridin-6-yl)piperazin-1-yl)propan-1-one], for which the IC50 against hENPP2 [1] is > 1000 nM; on hENPP2 [2], 0.01 to 100 nM. On the same counts, the results for `CCc1nc2ccc(C3=CCN(S(C)(=O)=O)CC3)cn2c1N(C)c1nc(-c2ccc(Cl)cc2)cs1` [Compound 209, 4-(4-chlorophenyl)-N-(2-ethyl-6-(1-(methylsulfonyl)-1,2,3,6-tetrahydropyridin-4-yl)imidazo[1,2-a]pyridin-3-yl)-N-methylthiazol-2-amine] are > 1000 nM and 0.01 to 100 nM. Take `CCc1nc2ccc(C3=CCN(S(=O)(=O)CCCOC(C)=O)CC3)cn2c1N(C)c1nc(-c2ccc(F)cc2)cs1` [Compound 74, Acetic acid 3-[4-(2-ethyl-3-{[4-(4-fluoro-phenyl)-thiazol-2-yl]-methyl-amino}-imidazo[1,2-a]pyridin-6-yl)-3,6-dihydro-2H-pyridine-1-sulfonyl]-propyl ester]: the figures for the IC50 against hENPP2 [1] and on hENPP2 [2] were > 1000 nM and 0.01 to 100 nM, respectively.

Take `CCc1nc2ccc(C3=CCN(S(C)(=O)=O)CC3)cn2c1N(C)c1nc(-c2ccc(F)cc2)c(F)s1` [Compound 77, N-(2-ethyl-6-(1-(methylsulfonyl)-1,2,3,6-tetrahydropyridin-4-yl)imidazo[1,2-a]pyridin-3-yl)-5-fluoro-4-(4-fluorophenyl)-N-methylthiazol-2-amine]: the IC50 against hENPP2 [1] was > 1000 nM; at hENPP2 [2], 0.01 to 100 nM. `CCc1nc2ccc(N3CCCCS3(=O)=O)cn2c1N(C)c1nc(-c2ccc(Cl)cc2)cs1` [Compound 207, 2-(2-ethyl-4-((4-(4-chlorophenyl)thiazol-2-yl)(methyl)amino)imidazo[1,2-a]pyridin-6-yl)-1-[1,2]thiazinane-1,1-dioxide]: the IC50 at hENPP2 [1] is > 1000 nM; at hENPP2 [2], 0.01 to 100 nM. As for `CCc1nc2ccc(N3CCN(CC(=O)N4CC[C@H](O)C4)CC3)cn2c1N(C)c1nc(-c2ccc(F)cc2)cs1` [Compound 25, (S)-2-(4-(2-ethyl-3-((4-(4-fluorophenyl)thiazol-2-yl)(methyl)amino)imidazo[1,2-a]pyridin-6-yl)piperazin-1-yl)-1-(3-hydroxypyrrolidin-1-yl)ethanone], the IC50 lay in the range of 100 to 500 nM at hENPP2 [1] and 0.01 to 100 nM on hENPP2 [2]. For the molecule `CCc1nc2ccc(C3CCN(CC(=O)N4CC(F)(F)C4)CC3)cn2c1N(C)c1nc(-c2ccc(F)cc2)cs1` [Compound 124, 1-(3,3-difluoroazetidin-1-yl)-2-(4-(2-ethyl-3-((4-(4-fluorophenyl)thiazol-2-yl)(methyl)amino)imidazo[1,2-a]pyridin-6-yl)piperidin-1-yl)ethanone], the IC50 against hENPP2 [1] is > 1000 nM; on hENPP2 [2], 0.01 to 100 nM.

The molecule `CCc1nc2cc(F)c(N3CCN(CC(=O)N4CC(O)C4)CC3)cn2c1N(C)c1nc(-c2ccc(F)cc2)c(C#N)s1` [Compound 18, 2-[(2-Ethyl-7-fluoro-6-{4-[2-(3-hydroxy-azetidin-1-yl)-2-oxo-ethyl]-piperazin-1-yl}-imidazo[1,2-a]pyridin-3-yl)-methyl-amino]-4-(4-fluoro-phenyl)-thiazole-5-carbonitrile] had an IC50 with LPA 18:2 in rat plasma of 0.01 to 100 nM. Turning to `CCc1nc2c(C)cc(N3CCN(CC(=O)N4CC(O)C4)C(C)(C)C3)cn2c1N(C)c1nc(-c2ccc(F)cc2)c(C#N)s1` [Compound 6, 2-((2-ethyl-6-(4-(2-(3-hydroxyazetidin-1-yl)-2-oxoethyl)-3,3-dimethylpiperazin-1-yl)-8-methylimidazo[1,2-a]pyridin-3-yl)(methyl)amino)-4-(4-fluorophenyl)thiazole-5-carbonitrile], the IC50 with LPA 18:2 in rat plasma lay in the range of 100 to 500 nM. As for `CCc1nc2ccc(C3CCN(C(=O)CN4CC(F)C4)CC3)cn2c1N(C)c1nc(-c2ccc(F)cc2)cs1` [Compound 133, 1-(4-(2-ethyl-3-((4-(4-fluorophenyl)thiazol-2-yl)(methyl)amino)imidazo[1,2-a]pyridin-6-yl)piperidin-1-yl)-2-(3-fluoroazetidin-1-yl)ethanone], the half-inhibitory concentration (IC50) is 100 to 500 nM against hENPP2 [1] and 0.01 to 100 nM at hENPP2 [2]. Take `CCc1nc2ccc(C3=CCOCC3)cn2c1N(C)c1nc(-c2ccc(F)cc2)cs1` [Compound 220, N-(6-(3,6-dihydro-2H-pyran-4-yl)-2-ethylimidazo[1,2-a]pyridin-3-yl)-4-(4-fluorophenyl)-N-methylthiazol-2-amine]: the IC50 at hENPP2 [1] was > 1000 nM; on hENPP2 [2], 0.01 to 100 nM. The matching figures for `CCc1nc2ccc(N3CCN(Cc4nnnn4C4CC4)CC3)cn2c1N(C)c1nc(-c2ccc(F)cc2)cs1` [Compound 39, N-(6-(4-((1-cyclopropyl-1H-tetrazol-5-yl)methyl)piperazin-1-yl)-2-ethylimidazo[1,2-a]pyridin-3-yl)-4-(4-fluorophenyl)-N-methylthiazol-2-amine]: > 1000 nM and 0.01 to 100 nM. In the case of `CCc1nc2ccc(N3CCN(C(=O)OC(C)(C)C)CC3=O)cn2c1N(C)c1nc(-c2ccc(Cl)cc2)cs1` [Compound 63, tert-butyl 4-(3-((4-(4-chlorophenyl)thiazol-2-yl)(methyl)amino)-2-ethylimidazo[1,2-a]pyridin-6-yl)-3-oxopiperazine-1-carboxylate], the IC50 against hENPP2 [1] was > 1000 nM; at hENPP2 [2] it was 0.01 to 100 nM.
